Measured values: publication PMC9334755 (Cancer Biology & Medicine, 2021)
pIC50: −log10 of the molar value. Like-named read-outs stand apart in the source and are kept apart here.

How the values were obtained:
hERG = hERG (Homo sapiens, UniProt Q12809)
From the text: Tissue distribution *From the literature.
Hear Liver Spleen LungKidney Brain Uteru Ovar TestisPlasma
Compound Maximum concentration (μM) Inhibition rate of maximumconcentration IC 50 (μM) […]

BMX = BMX (Homo sapiens, UniProt P51813); assay: HTRF kinase assay, BMX
Sequence of BMX (P51813 whole entry): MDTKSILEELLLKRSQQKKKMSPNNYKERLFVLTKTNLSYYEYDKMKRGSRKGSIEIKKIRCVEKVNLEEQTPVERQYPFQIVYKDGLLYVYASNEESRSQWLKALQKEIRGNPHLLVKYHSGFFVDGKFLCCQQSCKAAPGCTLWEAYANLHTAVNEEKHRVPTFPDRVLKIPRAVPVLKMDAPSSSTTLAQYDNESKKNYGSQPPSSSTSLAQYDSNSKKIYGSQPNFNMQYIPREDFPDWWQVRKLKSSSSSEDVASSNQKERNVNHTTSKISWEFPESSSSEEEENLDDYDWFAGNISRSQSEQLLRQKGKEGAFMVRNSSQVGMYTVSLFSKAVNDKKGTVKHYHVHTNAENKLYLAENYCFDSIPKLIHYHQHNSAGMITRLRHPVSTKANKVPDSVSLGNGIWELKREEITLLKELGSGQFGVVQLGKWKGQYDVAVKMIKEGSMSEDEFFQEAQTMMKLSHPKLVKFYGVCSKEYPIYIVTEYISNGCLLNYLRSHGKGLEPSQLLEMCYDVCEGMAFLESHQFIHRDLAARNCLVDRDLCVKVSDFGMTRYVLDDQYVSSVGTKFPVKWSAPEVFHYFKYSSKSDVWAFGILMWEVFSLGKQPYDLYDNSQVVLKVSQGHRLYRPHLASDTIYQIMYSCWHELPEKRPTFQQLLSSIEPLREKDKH
Procedure: (§1) Homogeneous time-resolved fluorescence (HTRF) assays were performed with a HTRF® KinEASE™-TK kit (Trevigen).

[1] = rat, in vivo
FYN = FYN (Homo sapiens, UniProt P06241); assay: Protein kinase panel at 1 µM, FYN; assay type: biochemical
Sequence of FYN (P06241 whole entry): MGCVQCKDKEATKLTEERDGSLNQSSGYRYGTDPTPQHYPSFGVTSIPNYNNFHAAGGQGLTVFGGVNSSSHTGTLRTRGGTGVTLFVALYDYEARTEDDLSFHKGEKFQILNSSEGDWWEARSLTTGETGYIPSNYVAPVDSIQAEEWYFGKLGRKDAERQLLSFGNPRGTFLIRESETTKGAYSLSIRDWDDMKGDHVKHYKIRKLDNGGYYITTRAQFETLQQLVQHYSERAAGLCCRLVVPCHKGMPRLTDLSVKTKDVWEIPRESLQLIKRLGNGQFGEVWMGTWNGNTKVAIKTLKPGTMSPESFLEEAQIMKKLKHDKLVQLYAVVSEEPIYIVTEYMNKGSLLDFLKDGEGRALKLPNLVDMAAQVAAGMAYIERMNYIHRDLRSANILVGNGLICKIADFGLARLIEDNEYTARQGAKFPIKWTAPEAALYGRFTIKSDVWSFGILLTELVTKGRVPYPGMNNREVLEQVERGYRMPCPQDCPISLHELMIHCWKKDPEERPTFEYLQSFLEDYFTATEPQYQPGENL

TXK = TXK (Homo sapiens, UniProt P42681); assay: Protein kinase panel at 1 µM, TXK; assay type: biochemical
Sequence of TXK (P42681 whole entry): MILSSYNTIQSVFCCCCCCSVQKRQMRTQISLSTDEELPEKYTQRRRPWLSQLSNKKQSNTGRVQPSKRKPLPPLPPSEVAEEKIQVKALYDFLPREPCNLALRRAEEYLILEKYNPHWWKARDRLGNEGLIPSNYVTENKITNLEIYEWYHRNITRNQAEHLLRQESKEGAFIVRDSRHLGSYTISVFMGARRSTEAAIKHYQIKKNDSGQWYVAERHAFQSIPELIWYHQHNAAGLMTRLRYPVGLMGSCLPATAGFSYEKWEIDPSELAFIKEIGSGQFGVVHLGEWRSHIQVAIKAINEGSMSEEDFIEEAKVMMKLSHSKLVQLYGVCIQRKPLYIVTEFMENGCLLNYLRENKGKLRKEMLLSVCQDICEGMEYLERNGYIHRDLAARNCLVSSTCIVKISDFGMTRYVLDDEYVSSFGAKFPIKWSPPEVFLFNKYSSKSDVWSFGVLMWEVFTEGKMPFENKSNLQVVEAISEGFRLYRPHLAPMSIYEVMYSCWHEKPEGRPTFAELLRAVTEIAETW

ITK = ITK (Homo sapiens, UniProt Q08881); assay: HTRF assay of ITK activity
Sequence of ITK (Q08881 whole entry): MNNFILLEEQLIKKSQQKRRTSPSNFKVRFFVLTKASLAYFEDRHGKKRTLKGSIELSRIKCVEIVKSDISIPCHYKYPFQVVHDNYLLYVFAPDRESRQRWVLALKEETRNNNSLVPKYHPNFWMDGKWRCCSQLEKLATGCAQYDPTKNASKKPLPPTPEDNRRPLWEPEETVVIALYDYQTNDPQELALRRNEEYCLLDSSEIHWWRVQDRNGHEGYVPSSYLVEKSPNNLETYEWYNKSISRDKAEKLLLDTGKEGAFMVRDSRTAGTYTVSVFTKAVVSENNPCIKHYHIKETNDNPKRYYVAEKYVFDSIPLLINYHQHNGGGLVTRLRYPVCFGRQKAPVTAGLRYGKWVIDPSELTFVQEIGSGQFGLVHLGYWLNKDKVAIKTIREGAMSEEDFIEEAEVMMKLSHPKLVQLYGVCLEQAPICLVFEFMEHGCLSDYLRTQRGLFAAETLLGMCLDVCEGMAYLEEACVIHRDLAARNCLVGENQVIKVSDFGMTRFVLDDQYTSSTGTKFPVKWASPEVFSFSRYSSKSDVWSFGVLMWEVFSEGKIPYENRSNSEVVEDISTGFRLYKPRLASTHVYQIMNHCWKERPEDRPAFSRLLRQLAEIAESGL
Procedure: as §1

BTK = BTK (Homo sapiens, UniProt Q06187); assay: Recovery of BTK activity after dilution (HTRF); assay type: biochemical; settings: BTK incubated with inhibitor for 2 h, mixture diluted
Sequence of BTK (Q06187 whole entry): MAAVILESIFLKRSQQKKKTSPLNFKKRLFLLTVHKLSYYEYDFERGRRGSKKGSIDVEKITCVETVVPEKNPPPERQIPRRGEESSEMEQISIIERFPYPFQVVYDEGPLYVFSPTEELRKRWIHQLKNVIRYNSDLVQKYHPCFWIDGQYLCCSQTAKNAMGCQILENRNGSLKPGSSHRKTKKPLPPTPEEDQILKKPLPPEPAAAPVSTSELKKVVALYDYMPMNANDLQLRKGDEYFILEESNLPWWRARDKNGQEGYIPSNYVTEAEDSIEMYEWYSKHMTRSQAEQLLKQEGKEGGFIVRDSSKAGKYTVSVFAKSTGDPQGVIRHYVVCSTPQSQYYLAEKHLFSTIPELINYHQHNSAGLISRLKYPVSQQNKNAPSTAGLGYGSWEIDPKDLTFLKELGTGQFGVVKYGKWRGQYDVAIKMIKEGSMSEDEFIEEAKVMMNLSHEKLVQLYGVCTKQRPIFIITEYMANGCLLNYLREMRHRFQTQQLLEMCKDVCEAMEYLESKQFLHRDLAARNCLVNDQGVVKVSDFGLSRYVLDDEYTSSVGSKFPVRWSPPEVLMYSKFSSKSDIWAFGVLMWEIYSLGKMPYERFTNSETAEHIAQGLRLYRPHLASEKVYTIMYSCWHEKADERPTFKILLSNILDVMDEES
Procedure: In addition, after incubation of BTK with the inhibitors for 4 h, we performed liquid chromatography-tandem mass spectrometry (LC-MS/MS) to detect the abundance of the inhibitors.
(A) The compounds were incubated with BTK for 2 h, after which HTRF assays were performed with dilution of the mixture. The reactions were stopped at different time points. Data are shown as the mean ± SEM. (B) The content of the compounds was measured with LC-MS/MS after incubation with BTK for 4 h. Data are shown as the mean ± SEM (n = 3). Statistical analysis was performed with Student’s t-test (***P < 0.001). […] Cells were lysed and analyzed by Western blot and fluorescent gel scanning.

Sequence of hERG (Q12809 whole entry): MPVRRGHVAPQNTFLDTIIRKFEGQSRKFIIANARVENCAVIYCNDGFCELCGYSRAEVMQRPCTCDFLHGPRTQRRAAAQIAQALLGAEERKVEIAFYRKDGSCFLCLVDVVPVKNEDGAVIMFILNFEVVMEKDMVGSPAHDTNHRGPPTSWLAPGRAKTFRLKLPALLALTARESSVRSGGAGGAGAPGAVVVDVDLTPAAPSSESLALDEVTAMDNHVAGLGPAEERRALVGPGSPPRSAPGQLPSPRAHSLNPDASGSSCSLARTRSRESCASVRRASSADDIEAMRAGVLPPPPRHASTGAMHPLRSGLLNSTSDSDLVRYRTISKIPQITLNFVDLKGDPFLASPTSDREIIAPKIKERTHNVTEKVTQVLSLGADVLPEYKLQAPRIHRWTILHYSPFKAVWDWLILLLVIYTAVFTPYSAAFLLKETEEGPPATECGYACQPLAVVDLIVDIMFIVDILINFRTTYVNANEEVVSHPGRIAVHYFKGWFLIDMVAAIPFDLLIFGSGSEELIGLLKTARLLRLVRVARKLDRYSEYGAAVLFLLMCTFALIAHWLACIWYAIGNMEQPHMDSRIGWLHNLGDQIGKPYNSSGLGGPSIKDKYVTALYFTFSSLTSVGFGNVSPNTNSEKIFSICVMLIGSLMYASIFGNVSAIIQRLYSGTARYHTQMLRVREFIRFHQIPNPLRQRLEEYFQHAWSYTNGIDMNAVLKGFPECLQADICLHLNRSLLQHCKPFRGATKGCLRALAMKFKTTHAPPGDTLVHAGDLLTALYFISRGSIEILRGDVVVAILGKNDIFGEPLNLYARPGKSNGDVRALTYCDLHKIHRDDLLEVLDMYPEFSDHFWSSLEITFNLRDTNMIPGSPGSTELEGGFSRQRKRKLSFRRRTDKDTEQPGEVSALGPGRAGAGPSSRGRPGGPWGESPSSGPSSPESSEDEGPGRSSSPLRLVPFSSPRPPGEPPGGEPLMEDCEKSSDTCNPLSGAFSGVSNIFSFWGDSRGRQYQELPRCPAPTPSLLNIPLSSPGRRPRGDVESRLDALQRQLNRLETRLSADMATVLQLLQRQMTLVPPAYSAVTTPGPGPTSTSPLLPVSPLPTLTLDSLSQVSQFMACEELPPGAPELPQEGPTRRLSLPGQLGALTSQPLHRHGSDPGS

## COC/C=C/C(=O)N1CC[C@@H](n2nc(-c3ccc(Oc4ccccc4)cc3)c(C(N)=O)c2N)C1 [SY-1530]
hERG
  pIC50: 5.27
hERG; 30 µM
  Inhibition rate of maximum concentration, hERG: 86.75 ± 2.61%
BMX; IC50 SY-1530 over literature IC50 of ibrutinib
  Ratio, BMX: 9.4
BMX; read-out: IC50 (nM), BMX, HTRF
  IC50: 7.51 nM
[1]; iv, 5 mg/kg
  AUC0–∞: 4112 ng·h/mL
[1]; po, 30 mg/kg
  AUC0–∞: 4460 ng·h/mL
  Cmax: 658 ng/mL
  F (%): 18.1%
  Tmax: 3.33 h
  t½: 4.79 h
[1]; po, 100 mg/kg
  AUC0–∞: 6842 ng·h/mL
  Cmax: 1085 ng/mL
  F (%): 8.32%
  Tmax: 1.75 h
  t½: 3.08 h
[1]; po, 300 mg/kg
  AUC0–∞: 9257 ng·h/mL
  Cmax: 1129 ng/mL
  F (%): 3.75%
  Tmax: 5.25 h
  t½: 3.9 h
FYN
  Inhibition (%), FYN: 87%
TXK
  Inhibition (%), TXK: 73%
ITK; IC50 SY-1530 over IC50 ibrutinib
  Ratio, ITK: > 13
ITK; read-out: IC50 toward ITK, HTRF
  pIC50: < 6.00
BTK
  Recovery of BTK activity after dilution: did not recover
